Patent US20240299352A1, “COMBINATION THERAPIES WITH SETD2 INHIBITORS” (Epizyme, Inc., priority 2021, published 2024)

Legend:
[1] = system: diffuse large B-cell lymphoma (DLBCL) cell lines; assay: Pre-treatment model combination study with Cpd. No. 15 (7 days pre-treatment, then combination; Table G), CellTiter-Glo viability, Loewe Volume; conditions: 7 days pre-treatment with Cpd. No. 15, then combination; for Combination effect with Cpd. No. 15 (Loewe Volume class), Farage: cell line Farage (Cat. No. CRL-2630); for Combination effect with Cpd. No. 15 (Loewe Volume class), HT: cell line HT (Cat. No. CRL-2631); for Combination effect with Cpd. No. 15 (Loewe Volume class), OCILY7: cell line OCILY7 (Cat. No. ACC 688); for Combination effect with Cpd. No. 15 (Loewe Volume class), SUDHL4: cell line SUDHL4 (Cat. No. ACC 495); for Combination effect with Cpd. No. 15 (Loewe Volume class), WILL2: cell line WILL2 (Cat. No. ACC 652)
JEKO1 = assay: Co-treatment combination study with Cpd. No. 15, CellTiter-Glo viability, Loewe Volume; assay type: cell-based; conditions: in combination with Cpd. No. 15, seven days, mantle cell lymphoma cell line JEKO1 (CRL-3006)
Description: (§1) Mantle cell lymphoma (MCL) and diffuse large B-cell lymphoma (DLBCL) cell line cultures in log-linear growth rate were treated with combinations of Cpd. No. 15 and combination partners according to a co-treatment model. […] No. 15 and the combination partner. […] Each combination was tested in quadruplicate wells. The final concentration of DMSO (vehicle) in the assay was 0.1% v/v. Fifty microliters of cell line suspension were directly dispensed to the assay-ready plates with an automated multichannel dispenser on to 384-well assay-ready plates. Assay plates were incubated for seven days unless otherwise indicated in a humidified atmosphere of 5% CO2 at 37° C. Quantification of the effect of single agents or combinations on cell viability was performed through measurement of cellular adenosine triphosphate (ATP) using a CellTiter-Glo® (Promega, Madison, WI) Luminescent Cell Viability Assay. Luminescence was detected using a SpectraMax M5 microplate reader (Molecular Devices, Sunnyvale, CA). Concentration response plots were generated in GraphPad Prism version 7.0 for Windows, GraphPad Software, (La Jolla, California) and curves fitted to a four-parameter logistic model with variable slope. Percent of inhibition was calculated at each treatment concentration.

MAVER1 = assay: as above; assay type: cell-based; conditions: in combination with Cpd. No. 15, seven days, mantle cell lymphoma cell line MAVER1 (CRL-3008)
Description: as §1

REC1 = assay: as above; assay type: cell-based; conditions: in combination with Cpd. No. 15, seven days, mantle cell lymphoma cell line REC1 (CRL-3004)
Description: as §1

JVM2 = assay: as above; assay type: cell-based; conditions: in combination with Cpd. No. 15, seven days, mantle cell lymphoma cell line JVM2 (CRL-3002)
Description: as §1

GRANTA519 = assay: as above; assay type: cell-based; conditions: in combination with Cpd. No. 15, seven days, mantle cell lymphoma cell line GRANTA519 (ACC 342)
Description: as §1

Z138 = assay: as above; assay type: cell-based; conditions: in combination with Cpd. No. 15, seven days, mantle cell lymphoma cell line Z138 (CRL-3001)
Description: as §1

MINO = assay: as above; assay type: cell-based; conditions: in combination with Cpd. No. 15, seven days, mantle cell lymphoma cell line MINO (CRL-3000)
Description: as §1

Structure (SMILES) | Combination effect with Cpd. No. 15 (Loewe Volume class), Farage [1] | Combination effect with Cpd. No. 15 (Loewe Volume class), HT [1] | Combination effect with Cpd. No. 15 (Loewe Volume class), OCILY7 [1] | Combination effect with Cpd. No. 15 (Loewe Volume class), SUDHL4 [1] | Combination effect with Cpd. No. 15 (Loewe Volume class), WILL2 [1] | Combination effect (Loewe Volume) JEKO1 (JEKO1) | Combination effect (Loewe Volume) MAVER1 (MAVER1) | Combination effect (Loewe Volume) REC1 (REC1) | Combination effect (Loewe Volume) JVM2 (JVM2) | Combination effect (Loewe Volume) GRANTA519 (GRANTA519) | Combination effect (Loewe Volume) Z138 (Z138) | Combination effect (Loewe Volume) MINO (MINO)
NC(=O)Nc1cc(-c2cccc(F)c2)sc1C(=O)N[C@H]1CCCNC1 [AZD7762] | Synergy (VLoewe>1: synergy) | Additivity (between 1 and −1: additivity) | Additivity (between 1 and −1: additivity) | Synergy (VLoewe>1: synergy) | Additivity (between 1 and −1: additivity) |  |  |  |  |  |  | 
CC[C@H](Nc1ncnc2[nH]cnc12)c1nc2cccc(F)c2c(=O)n1-c1ccccc1 [Idelalisib] | Synergy (VLoewe>1: synergy) | Synergy (VLoewe>1: synergy) | Additivity (between 1 and −1: additivity) | Synergy (VLoewe>1: synergy) |  |  |  |  |  |  |  | 
CC(=O)Nc1cccc(-n2c(=O)n(C3CC3)c(=O)c3c(Nc4ccc(I)cc4F)n(C)c(=O)c(C)c32)c1 [Trametinib] | Synergy (VLoewe>1: synergy) | Synergy (VLoewe>1: synergy) | Synergy (VLoewe>1: synergy) | Synergy (VLoewe>1: synergy) |  |  |  |  |  |  |  | 
C=CCn1c(=O)c2cnc(Nc3ccc(N4CCN(C)CC4)cc3)nc2n1-c1cccc(C(C)(C)O)n1 [AZD1775] | Synergy (VLoewe>1: synergy) | Additivity (between 1 and −1: additivity) | Additivity (between 1 and −1: additivity) | Synergy (VLoewe>1: synergy) | Synergy (VLoewe>1: synergy) |  |  |  |  |  |  | 
COc1c(OCCCN2CCOCC2)ccc2c1N=C(NC(=O)c1cnc(N)nc1)N1CCN=C21 [Copanlisib, copanlisib] |  |  |  |  |  | Additivity (between 1 and −1: additivity) | Synergy (VLoewe>1: synergy) | Additivity (between 1 and −1: additivity) | Additivity (between 1 and −1: additivity) | Additivity (between 1 and −1: additivity) | Additivity (between 1 and −1: additivity) | Additivity (between 1 and −1: additivity)
NC(=O)c1cccc2cn(-c3ccc([C@@H]4CCCNC4)cc3)nc12 [Niraparib] | Synergy (VLoewe>1: synergy) | Synergy (VLoewe>1: synergy) | Additivity (between 1 and −1: additivity) | Synergy (VLoewe>1: synergy) | Synergy (VLoewe>1: synergy) |  |  |  |  |  |  | 
O=C(c1cc(Cc2n[nH]c(=O)c3ccccc23)ccc1F)N1CCN(C(=O)C2CC2)CC1 [Olaparib] | Synergy (VLoewe>1: synergy) | Synergy (VLoewe>1: synergy) | Additivity (between 1 and −1: additivity) | Synergy (VLoewe>1: synergy) | Synergy (VLoewe>1: synergy) |  |  |  |  |  |  | 
CN(C)CCCOc1ccc(-c2ccc3ncc4c(c3c2)n(C2CCOCC2)c(=O)n4C)cn1 [AZD0156] | Synergy (VLoewe>1: synergy) | Synergy (VLoewe>1: synergy) | Synergy (VLoewe>1: synergy) | Synergy (VLoewe>1: synergy) | No Effect |  |  |  |  |  |  | 
CC(=O)c1c(C)c2cnc(Nc3ccc(N4CCNCC4)cn3)nc2n(C2CCCC2)c1=O [Palbociclib, palbociclib] |  |  |  |  |  | Synergy (VLoewe>1: synergy) | Synergy (VLoewe>1: synergy) | Additivity (between 1 and −1: additivity) | Additivity (between 1 and −1: additivity) | Additivity (between 1 and −1: additivity) | Additivity (between 1 and −1: additivity) | Additivity (between 1 and −1: additivity)
C[C@@H]1COCCN1c1cc(C2([S@](C)(=N)=O)CC2)nc(-c2cc[nH]c3nccc2-3)n1 [AZD6738] | Synergy (VLoewe>1: synergy) | Additivity (between 1 and −1: additivity) | Additivity (between 1 and −1: additivity) | Synergy (VLoewe>1: synergy) | No Effect |  |  |  |  |  |  | 
COc1cccc2c1C(=O)c1c(O)c3c(c(O)c1C2=O)C[C@@](O)(C(=O)CO)C[C@@H]3O[C@H]1C[C@H](N)[C@H](O)[C@H](C)O1 [Doxorubicin (H)] | Synergy (VLoewe>1: synergy) | Synergy (VLoewe>1: synergy) | Additivity (between 1 and −1: additivity) | Synergy (VLoewe>1: synergy) | Synergy (VLoewe>1: synergy) |  |  |  |  |  |  | 
COc1cc(Nc2ncc(F)c(Nc3ccc4c(n3)NC(=O)C(C)(C)O4)n2)cc(OC)c1OC [Tamatinib] | Synergy (VLoewe>1: synergy) | Additivity (between 1 and −1: additivity) | Additivity (between 1 and −1: additivity) | Synergy (VLoewe>1: synergy) | Additivity (between 1 and −1: additivity) |  |  |  |  |  |  | 
NC1(c2ccc(-c3nc4ccn5c(=O)[nH]nc5c4cc3-c3ccccc3)cc2)CCC1 [MK2206] | Synergy (VLoewe>1: synergy) | Synergy (VLoewe>1: synergy) | Synergy (VLoewe>1: synergy) | Synergy (VLoewe>1: synergy) | Synergy (VLoewe>1: synergy) |  |  |  |  |  |  | 
